Measured values taken from patent US4476120A, “Thiolic derivatives of erythromycin having therapeutic activity, and pharmaceutical compositions containing them” (Sigma Tau Indistrie Farmaceutiche Riunites, p.A, priority 1982, dated 1984).
In brackets after ≈: the same amount, converted by molar mass.

What was measured:
[1] = test system: Staph. albus SS 03; format: cell-based; settings: Brain Heart Infusion, estolate and RV11-RV15 previously hydrolized, unit assumed
[2] = test system: Staph. albus SS 04; format: cell-based; settings: Brain Heart Infusion, estolate and RV11-RV15 previously hydrolized, unit assumed
[3] = test system: Staph. aureus SS 07; format: cell-based; settings: Brain Heart Infusion, estolate and RV11-RV15 previously hydrolized, unit assumed
[4] = test system: Staph. aureus SS 08; format: cell-based; settings: Brain Heart Infusion, estolate and RV11-RV15 previously hydrolized, unit assumed
[5] = test system: Staph. aureus SS 10; format: cell-based; settings: Brain Heart Infusion, estolate and RV11-RV15 previously hydrolized, unit assumed
[6] = test system: Strept. haemolyticus SS 17; format: cell-based; settings: Brain Heart Infusion, estolate and RV11-RV15 previously hydrolized, unit assumed
[7] = test system: Strept. haemolyticus SS 18; format: cell-based; settings: Brain Heart Infusion, estolate and RV11-RV15 previously hydrolized, unit assumed
[8] = test system: Strept. faecalis SS 19; format: cell-based; settings: Brain Heart Infusion, estolate and RV11-RV15 previously hydrolized, unit assumed
[9] = test system: S. lutea ATCC 9341; format: cell-based; settings: Brain Heart Infusion, estolate and RV11-RV15 previously hydrolized, unit assumed
[10] = test system: B. subtilis ATCC 6633; format: cell-based; settings: Brain Heart Infusion, estolate and RV11-RV15 previously hydrolized, unit assumed
[11] = test system: B. subtilis SS 127; format: cell-based; settings: Brain Heart Infusion, estolate and RV11-RV15 previously hydrolized, unit assumed
[12] = test system: B. cereus ATCC 11778; format: cell-based; settings: Brain Heart Infusion, estolate and RV11-RV15 previously hydrolized, unit assumed
[13] = test system: B. anthranis SS 08; format: cell-based; settings: Brain Heart Infusion, estolate and RV11-RV15 previously hydrolized, unit assumed
[14] = test system: Br. melitensis SS 19; format: cell-based; settings: unit assumed
[15] = test system: Citrobacter SS 05; format: cell-based; settings: Brain Heart Infusion, estolate and RV11-RV15 previously hydrolized, unit assumed
[16] = test system: S. infantis SS 08; format: cell-based; settings: Brain Heart Infusion, estolate and RV11-RV15 previously hydrolized, unit assumed
[17] = test system: S. heidelberg SS 18; format: cell-based; settings: Brain Heart Infusion, estolate and RV11-RV15 previously hydrolized, unit assumed
[18] = test system: E. cloacae SS 07; format: cell-based; settings: Brain Heart Infusion, estolate and RV11-RV15 previously hydrolized, unit assumed
[19] = test system: E. aerogenes SS 011; format: cell-based; settings: Brain Heart Infusion, estolate and RV11-RV15 previously hydrolized, unit assumed
[20] = test system: Ps. aeruginosa SS 10; format: cell-based; settings: Brain Heart Infusion, estolate and RV11-RV15 previously hydrolized, unit assumed
[21] = test system: E. coli SS 04; format: cell-based; settings: Brain Heart Infusion, estolate and RV11-RV15 previously hydrolized, unit assumed
[22] = test system: E. coli SS 05; format: cell-based; settings: Brain Heart Infusion, estolate and RV11-RV15 previously hydrolized, unit assumed
[23] = test system: E. coli SS 06; format: cell-based; settings: Brain Heart Infusion, estolate and RV11-RV15 previously hydrolized, unit assumed
[24] = test system: E. coli SS 07; format: cell-based; settings: Brain Heart Infusion, estolate and RV11-RV15 previously hydrolized, unit assumed
[25] = test system: Pr. mirabilis SS 09; format: cell-based; settings: Brain Heart Infusion, estolate and RV11-RV15 previously hydrolized, unit assumed
[26] = test system: Pr. vulgaris SS 10; format: cell-based; settings: Brain Heart Infusion, estolate and RV11-RV15 previously hydrolized, unit assumed
[27] = test system: Kl. aerogenes SS 71; format: cell-based; settings: Brain Heart Infusion, estolate and RV11-RV15 previously hydrolized, unit assumed
[28] = test system: H. tubercolosis SS 03; format: cell-based; settings: Brain Heart Infusion, estolate and RV11-RV15 previously hydrolized, unit assumed
From the text: (§1) In the following table I the MIC/ml values are indicated corresponding to the lowest concentration capable of inducing a complete inhibition of the bacterial development.

[29] = test system: Kl. pneumoniae SS 04; format: cell-based; settings: Brain Heart Infusion, estolate and RV11-RV15 previously hydrolized, unit assumed
From the text: as §1

[30] = test system: Sr. marcescens SS 03; format: cell-based; settings: Brain Heart Infusion, estolate and RV11-RV15 previously hydrolized, unit assumed
[31] = test system: C. diphtheriae SS 19; format: cell-based; settings: Brain Heart Infusion, estolate and RV11-RV15 previously hydrolized, unit assumed
[32] = test system: D. pneumoniae SS 23; format: cell-based; settings: Brain Heart Infusion, estolate and RV11-RV15 previously hydrolized, unit assumed
[33] = test system: N. gonorreae SS 27; format: cell-based; settings: Brain Heart Infusion, estolate and RV11-RV15 previously hydrolized, unit assumed
[34] = test system: N. meningitidis SS 04; format: cell-based; settings: Brain Heart Infusion, estolate and RV11-RV15 previously hydrolized, unit assumed
[35] = test system: H. influentiae SS 02; format: cell-based; settings: Brain Heart Infusion, estolate and RV11-RV15 previously hydrolized, unit assumed
[36] = test system: H. pertussis SS 03; format: cell-based; settings: Brain Heart Infusion, estolate and RV11-RV15 previously hydrolized, unit assumed
[37] = test system: C. albicans SS 04; format: cell-based; settings: Brain Heart Infusion, estolate and RV11-RV15 previously hydrolized, unit assumed
[38] = test system: Cl. tetani SS 17; format: cell-based; settings: Brain Heart Infusion, estolate and RV11-RV15 previously hydrolized, unit assumed
[39] = test system: B. anthranis SS 09; format: cell-based; settings: B. anthranis SS 09 (14 bis); Brain Heart Infusion; estolate and RV11-RV15 previously hydrolized; unit assumed
[40] = Acute toxicity; format: in vivo; settings: mortality 10 days after treatment, mice
Experimental: The acute toxicity was assessed in Swiss white mice by oral and intravenous route. The LD50 values have been calculated by the methods of Probits, starting from the mortality recorded 10 days after the treatment.

[41] = test system: Staph. aureus SS 07; assay: Experimental infection induced by Staph. aureus SS 07; format: in vivo, Swiss white mice; settings: Staph. aureus SS 07, mg/kg of erythromycin, survival after 7 days, 10080 min
In short: (§2)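 Swiss mice of 20 g infected parenterally with lethal amounts of Staph. aureus SS 07 or D. pneumoniae SS 23. Antibiotics were given at infection and again 6 and 24 h later. ED50 was derived from survival at 7 days.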

[42] = test system: D. pneumoniae SS 23; assay: Experimental infection induced by D. pneumoniae SS 23; format: in vivo, Swiss white mice; settings: D. pneumoniae SS 23, mg/kg of erythromycin, survival after 7 days, 10080 min
In short: as §2

[43] = Histological examination of bronchi after SO2 inhalation; format: in vivo, Sprague Dawley male rats; settings: i.m., 250 mg/kg; for histological appearance of non obstructed bronchi: free non obstructed

CC[C@H]1OC(=O)[C@H](C)[C@@H](O[C@H]2C[C@@](C)(OC)[C@@H](O)[C@H](C)O2)[C@H](C)[C@@H](O[C@@H]2O[C@H](C)C[C@H](N(C)C)[C@H]2O)[C@](C)(O)C[C@@H](C)C(=O)[C@H](C)[C@@H](O)[C@]1(C)O [RV03, erythromycyn-thiazolidin-carboxylate]
MIC [1]: 0.05 µg/mL (≈ 0.0681 µM) | MIC [2]: 0.025 µg/mL (≈ 0.0341 µM) | MIC [3]: 0.025 µg/mL (≈ 0.0341 µM) | MIC [4]: 0.025 µg/mL (≈ 0.0341 µM) | MIC [5]: 0.1 µg/mL (≈ 0.136 µM) | MIC [6]: 1.5 µg/mL (≈ 2.04 µM) | MIC [7]: 1.5 µg/mL (≈ 2.04 µM) | MIC [8]: 0.05 µg/mL (≈ 0.0681 µM) | MIC [9]: 0.025 µg/mL (≈ 0.0341 µM) | MIC [10]: 0.05 µg/mL (≈ 0.0681 µM) | MIC [11]: 0.025 µg/mL (≈ 0.0341 µM) | MIC [12]: 0.08 µg/mL (≈ 0.109 µM) | MIC [13]: 0.2 µg/mL (≈ 0.273 µM) | MIC [14]: 6 µg/mL (≈ 8.18 µM) | MIC [15]: > 200 µg/mL | MIC [16]: 200 µg/mL (≈ 273 µM) | MIC [17]: 100 µg/mL (≈ 136 µM) | MIC [18]: > 200 µg/mL | MIC [19]: 50 µg/mL (≈ 68.1 µM) | MIC [20]: 100 µg/mL (≈ 136 µM) | MIC [21]: 100 µg/mL (≈ 136 µM) | MIC [22]: 50 µg/mL (≈ 68.1 µM) | MIC [23]: 50 µg/mL (≈ 68.1 µM) | MIC [24]: 50 µg/mL (≈ 68.1 µM) | MIC [25]: > 200 µg/mL | MIC [26]: > 200 µg/mL | MIC [27]: 50 µg/mL (≈ 68.1 µM) | MIC [28]: 25 µg/mL (≈ 34.1 µM) | MIC [29]: 100 µg/mL (≈ 136 µM) | MIC [30]: 100 µg/mL (≈ 136 µM) | MIC [31]: 0.025 µg/mL (≈ 0.0341 µM) | MIC [32]: 0.025 µg/mL (≈ 0.0341 µM) | MIC [33]: 0.8 µg/mL (≈ 1.09 µM) | MIC [34]: 1.5 µg/mL (≈ 2.04 µM) | MIC [35]: 1.5 µg/mL (≈ 2.04 µM) | MIC [36]: 0.4 µg/mL (≈ 0.545 µM) | MIC [37]: 200 µg/mL (≈ 273 µM) | MIC [38]: 0.4 µg/mL (≈ 0.545 µM) | MIC [39]: 0.4 µg/mL (≈ 0.545 µM) | LD50 (reliability limits) ([40]; i.v., 14400 min): 491.96 (552.31-438.20) mg.kg | LD50 (reliability limits) ([40]; os): > 3000 mg·kg | ED50 (reliability limits) ([41]; os): 2.14 (2.42-1.89) mg/kg | ED50 (reliability limits) ([41]; s.c.): 1.00 (1.36-0.73) mg/kg | ED50 (reliability limits) ([42]; os): 119.21 (142.60-99.65) mg/kg | ED50 (reliability limits) ([42]; s.c.): 47.98 (59.13-38.93) mg/kg | histological appearance of non obstructed bronchi [43]: practically normal appearance | histological appearance of obstructed bronchial tract [43]: an appearance like that of the control animals

CC[C@H]1OC(=O)[C@H](C)[C@@H](O[C@H]2C[C@@](C)(OC)[C@@H](O)[C@H](C)O2)[C@H](C)[C@@H](O[C@@H]2O[C@H](C)C[C@H](N(C)C)[C@H]2O)[C@](C)(O)C[C@@H](C)C(=O)[C@H](C)[C@@H](O)[C@]1(C)O [RV04, erythromycin-S-carboxymethylcysteinate]
MIC [1]: 0.1 µg/mL (≈ 0.136 µM) | MIC [2]: 0.05 µg/mL (≈ 0.0681 µM) | MIC [3]: 0.025 µg/mL (≈ 0.0341 µM) | MIC [4]: 0.05 µg/mL (≈ 0.0681 µM) | MIC [5]: 0.2 µg/mL (≈ 0.273 µM) | MIC [6]: 1.5 µg/mL (≈ 2.04 µM) | MIC [7]: 1.5 µg/mL (≈ 2.04 µM) | MIC [8]: 0.05 µg/mL (≈ 0.0681 µM) | MIC [9]: 0.01 µg/mL (≈ 0.0136 µM) | MIC [10]: 0.025 µg/mL (≈ 0.0341 µM) | MIC [11]: 0.025 µg/mL (≈ 0.0341 µM) | MIC [12]: 0.2 µg/mL (≈ 0.273 µM) | MIC [13]: 0.4 µg/mL (≈ 0.545 µM) | MIC [14]: 6 µg/mL (≈ 8.18 µM) | MIC [15]: > 200 µg/mL | MIC [16]: 100 µg/mL (≈ 136 µM) | MIC [17]: 100 µg/mL (≈ 136 µM) | MIC [18]: > 200 µg/mL | MIC [19]: 50 µg/mL (≈ 68.1 µM) | MIC [20]: 100 µg/mL (≈ 136 µM) | MIC [21]: 100 µg/mL (≈ 136 µM) | MIC [22]: 50 µg/mL (≈ 68.1 µM) | MIC [23]: 100 µg/mL (≈ 136 µM) | MIC [24]: 25 µg/mL (≈ 34.1 µM) | MIC [25]: 200 µg/mL (≈ 273 µM) | MIC [26]: > 200 µg/mL | MIC [27]: 50 µg/mL (≈ 68.1 µM) | MIC [28]: 50 µg/mL (≈ 68.1 µM) | MIC [29]: 100 µg/mL (≈ 136 µM) | MIC [30]: > 200 µg/mL | MIC [31]: 0.205 µg/mL (≈ 0.279 µM) | MIC [32]: 0.05 µg/mL (≈ 0.0681 µM) | MIC [33]: 0.8 µg/mL (≈ 1.09 µM) | MIC [34]: 1.5 µg/mL (≈ 2.04 µM) | MIC [35]: 1.5 µg/mL (≈ 2.04 µM) | MIC [36]: 0.8 µg/mL (≈ 1.09 µM) | MIC [37]: 100 µg/mL (≈ 136 µM) | MIC [38]: 0.2 µg/mL (≈ 0.273 µM) | MIC [39]: 0.2 µg/mL (≈ 0.273 µM) | LD50 (reliability limits) ([40]; i.v., 14400 min): 439.46 (545.44-354.08) mg.kg | LD50 (reliability limits) ([40]; os): > 3000 mg·kg | ED50 (reliability limits) ([41]; os): 2.31 (2.55-2.09) mg/kg | ED50 (reliability limits) ([41]; s.c.): 1.00 (1.24-0.80) mg/kg | ED50 (reliability limits) ([42]; os): 119.31 (152.88-92.95) mg/kg | ED50 (reliability limits) ([42]; s.c.): 60.17 (70.74-51.18) mg/kg | histological appearance of non obstructed bronchi [43]: practically normal appearance | histological appearance of obstructed bronchial tract [43]: an appearance like that of the control animals
